Test results: publication PMC5404532, “Simplified Reversed Chloroquines To Overcome Malaria Resistance to Quinoline-Based Drugs” (Antimicrobial Agents and Chemotherapy, 2017)
Where two headings read alike, the source gives them in different places.

Legend:
P. falciparum D6 (CQS) [1] = test: Inhibition of P. falciparum growth, CQS D6 (SYBR green I fluorescence); format: cell-based
Text: (§1) Inhibition of P. falciparum growth.
(§2) CQS (D6) and CQR (Dd2 and 7G8) P. falciparum maintained continuously in culture were used ([38]). […] The fluorescence readings were plotted against log(drug), and the IC50s were obtained from curve fitting performed by nonlinear regression using either Prism (GraphPad) or Excel (Microsoft) software.

P. falciparum 7G8 (CQR) = test: Inhibition of P. falciparum growth, CQR 7G8 (SYBR green I fluorescence); format: cell-based, Plasmodium falciparum
Text: as §1, §2

P. falciparum Dd2 (CQR) [2] = test: Inhibition of P. falciparum growth, CQR Dd2 (SYBR green I fluorescence); format: cell-based
Text: as §1, §2

mouse spleen lymphocytes [3] = test: Cytotoxicity against mouse spleen lymphocytes; format: cell-based; conditions: estimated ±50%
[4] = In vitro heme binding (optical titration); conditions: 5 μM heme, phosphate buffer 100 mM, pH 5.7; read-out: heme binding dissociation constant (Kd)
Method: In vitro heme binding and β-hematin inhibition.
A 5 mM stock solution of heme was prepared by dissolving heme chloride in 0.1 mM NaOH by incubation at 37°C for 30 min. The solution was stored at 4°C for no more than 1 month. At the beginning of each experiment, the stock heme solution was diluted to 5 μM in phosphate buffer (100 mM, pH 5.7) and allowed to equilibrate for 4 h. The 4-h equilibration allowed for the initial heme absorbance to stabilize prior to beginning the titration. Optical titrations with each compound were performed by successive addition of aliquots of its stock solution to the 5 μM heme solution. […] Equilibrium binding constants were determined by nonlinear least-squares analysis ([39]).

P. falciparum Dd2 (CQR) [5] = conditions: ref Burgess et al. (33); cited from earlier work
mouse spleen lymphocytes [6] = conditions: ref Burgess et al. (33); cited from earlier work
P. falciparum D6 (CQS) [7] = conditions: ref Burgess et al. (33); cited from earlier work
P. yoelii = test: In vivo 3-day suppressive test against P. yoelii in a murine malaria model; design: species or system Plasmodium yoelii; conditions: mice, oral gavage, 3 daily doses, water-soluble hydrochloride or phosphate salts; errors estimated ±20%
Method: A selection of the compounds (compounds 9, 10, 12, 21, 23, and 24) was tested in vivo against P. yoelii in a murine malaria model. The compounds were first converted to water-soluble hydrochloride or phosphate salts for administration in aqueous solution. Efficacy testing was carried out using 4 different dose levels with 5 mice at each level, administered by oral gavage. […] A single-dose toxicity evaluation was also performed, using 1 or 2 mice in each case. The doses were limited by water solubilities.
In vivo 3-day suppressive test.
Female CF-1 mice, at 4 to 5 weeks of age, were injected intravenously with 10^6 erythrocytes infected with P. yoelii ([43][–][45]). The following day, and then daily for a total of 3 doses, 5 mice each were administered the appropriate dose of the compound by gavage and evaluated by direct microscopic analysis of Giemsa-stained blood smears ([46]) 1 day after the final dose. The Portland State University Institutional Animal Care and Use Committee approved the protocols involving animals used in this study.

[8] = Single-dose toxicity evaluation in mice; format: in vivo; conditions: for Toxicity observation: single-dose experiments on 1 or 2 mice/compound, doses limited by water solubility
Method: The compounds were first converted to water-soluble hydrochloride or phosphate salts for administration in aqueous solution. Efficacy testing was carried out using 4 different dose levels with 5 mice at each level, administered by oral gavage. […] A single-dose toxicity evaluation was also performed, using 1 or 2 mice in each case.

[9] = Plasmodium falciparum, D6, 72 h; read-out: IC50 (nM) for P. falciparum D6
[10] = Plasmodium falciparum, 7G8, 72 h, read-out: IC50 (nM) for P. falciparum 7G8
[11] = Plasmodium falciparum, DD2, 72 h; read-out: IC50 (nM) for P. falciparum Dd2
[12] = Plasmodium falciparum, D6; read-out: IC50 from dose-response curve against CQS D6 (Fig 4a)
[13] = Plasmodium falciparum, DD2; read-out: IC50 from dose-response curve against CQR Dd2 (Fig 4b)

Row | SMILES | IC50 (P. falciparum D6 (CQS) [1]; [9]) [nM] | IC50 (P. falciparum 7G8 (CQR); [10]) [nM] | IC50 (P. falciparum Dd2 (CQR) [2]; [11]) [nM] | also measured
1 | O=[N+]([O-])c1ccc(N2CCN(CCCNc3ccnc4cc(Cl)ccc34)CC2)c([N+](=O)[O-])c1 [Compound 27, 7-Chloro-N-(3-(4-(2,4-dinitrophenyl)piperazin-1-yl)propyl)quinolin-4-amine] | 0.3 | 0.4 | 0.5 | –
2 | Clc1ccc2c(NCCCN3CCN(c4ccccc4-c4ccccc4)CC3)ccnc2c1 [Compound 6, N-(3-(4-(Biphenyl-2-yl)piperazin-1-yl)propyl)-7-chloroquinolin-4-amine] | 1.2 | – | 2.6 | Cytotoxicity (mouse spleen lymphocytes [3]): 1,700 nM
3 | CCN(CC)CCCC(C)Nc1ccnc2cc(Cl)ccc12 (centres unmarked) [CQ, chloroquine] | – | – | – | IC50 (P. falciparum D6 (CQS) [1]; Plasmodium falciparum, D6, 72 h, read-out: IC50 (nM) for P. falciparum D6): 6.9 nM; IC50 (P. falciparum D6 (CQS) [1]; Plasmodium falciparum, D6, read-out: IC50 from dose-response curve against CQS D6 (Fig 4a)): 7.9 nM; IC50 (P. falciparum 7G8 (CQR); Plasmodium falciparum, 7G8, 72 h, read-out: IC50 (nM) for P. falciparum 7G8, CQR 7G8, 72 h, averages from at least 3 runs, normalized to CQ 108 nM, uncertainty ±15%): 106 nM; IC50 (P. falciparum 7G8 (CQR); read-out: IC50 (nM) for P. falciparum 7G8, CQR 7G8, 72 h, averages from at least 3 runs, normalized to CQ 108 nM, uncertainty ±15%): 108 nM; IC50 (P. falciparum Dd2 (CQR) [2]; Plasmodium falciparum, DD2, 72 h, read-out: IC50 (nM) for P. falciparum Dd2): 102 nM; IC50 (P. falciparum Dd2 (CQR) [2]; Plasmodium falciparum, DD2, read-out: IC50 from dose-response curve against CQR Dd2 (Fig 4b)): 71.7 nM
4 | Clc1ccc2c(NCCCN3CCNCC3)ccnc2c1 [Compound 16] | – | – | – | IC50 (P. falciparum Dd2 (CQR) [5]): 6.8 nM; Cytotoxicity (mouse spleen lymphocytes [6]): 23,000 nM; IC50 (P. falciparum D6 (CQS) [7]): 4.3 nM
5 | COc1ccc(N2CCN(CCCNc3ccnc4cc(Cl)ccc34)CC2)cc1 [Compound 12, 7-Chloro-N-(3-(4-(4-methoxyphenyl)piperazin-1-yl)propyl)quinolin-4-amine] | 1.3 | 0.3 | 0.3 | Kd [4]: ~5000 nM; ED50 (P. yoelii): 10 mg/kg/day; Toxicity observation [8]: Well tolerated at 500 mg/kg
6 | Clc1ccc2c(NCCCN3CCN(CCc4ccccc4)CC3)ccnc2c1 [Compound 18, 7-Chloro-N-(3-(4-phenethylpiperazin-1-yl)propyl)quinolin-4-amine] | 0.5 | 1.2 | 1 | –
7 | O=[N+]([O-])c1cnc(N2CCN(CCCNc3ccnc4cc(Cl)ccc34)CC2)c([N+](=O)[O-])c1 [Compound 26, 7-Chloro-N-(3-(4-(3,5-dinitropyridin-2-yl)piperazin-1-yl)propyl)quinolin-4-amine] | 0.5 | 0.9 | 0.9 | –
8 | Clc1ccc(N2CCN(CCCNc3ccnc4cc(Cl)ccc34)CC2)cc1 [Compound 10, 7-Chloro-N-(3-(4-(4-chlorophenyl)piperazin-1-yl)propyl)quinolin-4-amine] | 0.3 | 0.1 | 0.5 | ED50 (P. yoelii): 8 mg/kg/day; Toxicity observation [8]: Death at 260 mg/kg, delayed death of 2/4 mice at 64 mg/kg
9 | Clc1ccc2c(NCCCN3CCN(Cc4ccccc4)CC3)ccnc2c1 [Compound 17, N-(3-(4-Benzylpiperazin-1-yl)propyl)-7-chloroquinolin-4-amine] | 2.4 | 9 | 7 | –
10 | Clc1ccc2c(NCCCN3CCN(c4ccccc4)CC3)ccnc2c1 [Compound 9, 7-Chloro-N-(3-(4-phenylpiperazin-1-yl)propyl)quinolin-4-amine] | 0.4 | 0.6 | 0.7 | IC50 (P. falciparum D6 (CQS) [1]; [12]): 0.5 nM; Kd [4]: ~5000 nM; Cytotoxicity (mouse spleen lymphocytes [3]): 6,400 nM; ED50 (P. yoelii): 2 mg/kg/day; Toxicity observation [8]: Well tolerated at 300 mg/kg; dose without evident toxicity as multiple of the ED50 ([8]; single-dose toxicity screen in mice vs ED50 against P. yoelii): 150 fold; IC50 (P. falciparum Dd2 (CQR) [2]; [13]): 0.5 nM
11 | O=C(c1ccccc1)N1CCN(CCCNc2ccnc3cc(Cl)ccc23)CC1 [Compound 20, N-(3-(4-Benzoylpiperazin-1-yl)propyl)-7-chloroquinolin-4-amine] | 4 | 7 | 7 | –
12 | Clc1ccc2c(NCCCN3CCN(Cc4cccc5ccccc45)CC3)ccnc2c1 [Compound 19, 7-Chloro-N-(3-(4-(naphthalen-1-ylmethyl)piperazin-1-yl)propyl)quinolin-4-amine] | 1.1 | 0.8 | 1.1 | –
13 | O=[N+]([O-])c1ccc(N2CCN(CCCNc3ccnc4cc(Cl)ccc34)CC2)nc1 [Compound 24, 7-Chloro-N-(3-(4-(5-nitropyridin-2-yl)piperazin-1-yl)propyl)quinolin-4-amine] | 0.3 | 0.5 | 0.5 | ED50 (P. yoelii): 3 mg/kg/day; Toxicity observation [8]: Well tolerated at 153 mg/kg^c
14 | Clc1ccc2c(NCCCN3CCN(c4ccccn4)CC3)ccnc2c1 [Compound 21, 7-Chloro-N-(3-(4-(pyridin-2-yl)piperazin-1-yl)propyl)quinolin-4-amine] | 0.7 | 0.9 | 1.1 | Cytotoxicity (mouse spleen lymphocytes [3]): 13,300 nM; ED50 (P. yoelii): 6 mg/kg/day; Toxicity observation [8]: Well tolerated at 435 mg/kg

Further lines, with some results ahead:

Row | IC50 (P. falciparum D6 (CQS) [1]; [9]) [nM] | IC50 (P. falciparum 7G8 (CQR); [10]) [nM] | IC50 (P. falciparum Dd2 (CQR) [2]; [11]) [nM] | SMILES | also measured
15 | 2 | 0.2 | 0.2 | Fc1ccc(N2CCN(CCCNc3ccnc4cc(Cl)ccc34)CC2)cc1 [Compound 11, 7-Chloro-N-(3-(4-(4-fluorophenyl)piperazin-1-yl)propyl)quinolin-4-amine] | Kd [4]: ~5000 nM
16 | 0.6 | 0.2 | 0.9 | Clc1ccc2c(NCCCN3CCN(c4ccc(-c5ccccc5)cc4)CC3)ccnc2c1 [Compound 8, N-(3-(4-(Biphenyl-4-yl)piperazin-1-yl)propyl)-7-chloroquinolin-4-amine] | IC50 (P. falciparum D6 (CQS) [1]; [12]): 0.7 nM; Cytotoxicity (mouse spleen lymphocytes [3]): 2,200 nM; IC50 (P. falciparum Dd2 (CQR) [2]; [13]): 0.7 nM
17 | 1.4 | – | 2.3 | Clc1ccc2c(NCCCN3CCN(c4ncccn4)CC3)ccnc2c1 [Compound 23, 7-Chloro-N-(3-(4-(pyrimidin-2-yl)piperazin-1-yl)propyl)quinolin-4-amine] | Cytotoxicity (mouse spleen lymphocytes [3]): 28,000 nM; ED50 (P. yoelii): 7 mg/kg/day
18 | 0.9 | 0.3 | 0.8 | O=[N+]([O-])c1ccc(N2CCN(CCCNc3ccnc4cc(Cl)ccc34)CC2)cc1 [Compound 14, 7-Chloro-N-(3-(4-(4-nitrophenyl)piperazin-1-yl)propyl)quinolin-4-amine] | –
19 | 0.1 | 0.5 | 1.3 | Cc1ccc(N2CCN(CCCNc3ccnc4cc(Cl)ccc34)CC2)cc1 [Compound 15, 7-Chloro-N-(3-(4-p-tolylpiperazin-1-yl)propyl)quinolin-4-amine] | –
20 | 0.9 | – | 1.8 | Clc1ccc2c(NCCCN3CCN(c4cccc(-c5ccccc5)c4)CC3)ccnc2c1 [Compound 7, N-(3-(4-(Biphenyl-3-yl)piperazin-1-yl)propyl)-7-chloroquinolin-4-amine] | Cytotoxicity (mouse spleen lymphocytes [3]): 2,100 nM
21 | 0.06 | 0.3 | 0.2 | FC(F)(F)c1ccc(N2CCN(CCCNc3ccnc4cc(Cl)ccc34)CC2)cc1 [Compound 13, 7-Chloro-N-(3-(4-(4-(trifluoromethyl)phenyl)piperazin-1-yl)propyl)quinolin-4-amine] | Kd [4]: ~5000 nM
22 | 0.5 | 1 | 0.9 | FC(F)(F)c1ccc(N2CCN(CCCNc3ccnc4cc(Cl)ccc34)CC2)nc1 [Compound 25, 7-Chloro-N-(3-(4-(5-(trifluoromethyl)pyridin-2-yl)piperazin-1-yl)propyl)quinolin-4-amine] | –
23 | 0.5 | 1.1 | 1.6 | Clc1ccc2c(NCCCN3CCN(c4ccncc4)CC3)ccnc2c1 [Compound 22, 7-Chloro-N-(3-(4-(pyridin-4-yl)piperazin-1-yl)propyl)quinolin-4-amine] | –
